# Experimental data: US20240287062A1, “NAPHTHYRIDONE COMPOUNDS FOR INHIBITION OF RAF KINASES AND/OR BCR-ABL TYROSINE KINASES” (Enliven Inc., priority 2021, published 2024)
# Like-named read-outs stand apart in the source and are kept apart here.
# Tests used:
# Assay type in all cases: cell-based
# [1] = tested on: A375 (BRAF V600E); experiment: Cell viability assay (CellTiter Glo)
# Protocol: (§1) Cell viability was measured in the following MAPK pathway mutant cancer cell lines: A375 (BRAF V600E), HepG2 (NRAS Q61L), SK-MEL-30 (NRAS Q61K), and OCI-AML-2 (MBNL1-CRAF fusion). Cell viability was also measured in K562 cells.
# (§2) A375, HepG2, SK-MEL-30 and OCI-AML-2 cells were grown in the appropriate growth medium as described in Table B2 below, and harvested at 50-80% confluence. Cells were counted and seeded at their appropriate density (see Table B1) in a 384-well plate (Corning 3570). A375, HepG2 and SK-MEL-30 were allowed to adhere overnight prior to treatment and the OCI-AML-2 were treated immediately for the indicated drug treatment times (Table 6).
# (§3) Table 6 provides the growth media, number of cells seeded per well and drug treatment times for the each cell line. K562 cells were grown as described in Example B1 above.
# (§4) Compounds were dissolved in DMSO and serially diluted. Serially-diluted compound or a DMSO only control (high control, “HC”) was added to the plated cells in each well. Compounds were tested at concentrations of about 10 μM to 0.51 nM, using three-fold dilutions. The final proportion of DMSO never exceeded 0.1%.
# (§5) Plates were placed in a 37° C., […] incubator for the indicated treatment times (Table B1). Plates were then removed from the incubator and equilibrated for 15 minutes at room temperature. 40 μl of CellTiter Glo reagent (Promega) was added to measure the relative level of metabolically active cells by quantifying intracellular ATP concentrations. Plates were incubated for 30 minutes at room temperature, and luminescence was measured. Percent viability was normalized to a vehicle control only using the following formula: 0 viability=100×(LumSample−LumLC)/(LumHC−LumLC). Graphical curves were fitted using a nonlinear regression model with a sigmoidal dose response.
# [2] = tested on: phosphorylated ERK (pERK); experiment: Detection of phosphorylated ERK (pERK), AlphaLISA in A375 cells; conditions: four hours incubation, inhibition of ERK phosphorylation, read-out: PERK ELISA (IC50)
# Protocol: A375 cells were counted and seeded at 10,000 cells/well in 384 well plates (Corning 3764) and allowed to adhere overnight.
# Compounds were dissolved and serially diluted in DMSO. The compounds were then added, mixed, and incubated for four hours at 37° C., 5% CO2. Compounds were added using four-fold dilutions at final concentrations ranging from 10 μM to 0.01 nM. DMSO only and 10 uM staurosporine were added as high and low controls.
# Following the four-hour incubation with compounds, cell lysates were prepared and AlphaLISA assay measuring phosphorylated ERK was performed. Media was removed using the Apricot Designs pipettor. Lysis buffer was made from 1× AlphaLISA SureFire Assay Kit (AlphaLISA SureFire Ultra pERK 12 (Thr202/Tyr204) ALSU-PERK-A50K) lysis buffer with protease and phosphatase inhibitors. Cells were lysed by adding 10 uL to all the wells and mixed for 40 minutes on a plate shaker. 10 uL cell lysate was transferred to a new Optiplate (PerkinElmer 6007290) and incubated with 5 uL 1× acceptor mix for 2 hours in the dark. 5 uL of 1× donor mix was added to all wells and mixed by shaking followed by overnight incubation in the dark.
# pERK AlphaLISA signal was read on the Envision using standard AlphaLISA settings. Percent inhibition of ERK phosphorylation was calculated by % Inhibition=100×(LumHC−LumSample)/(LumHC−LumLC). The low and high controls (LC/HC) are generated from lysate from wells with cells treated with DMSO or […] Staurosporine (BioAustralis, cat #BIA-S1086), […]. IC50 values were calculated by fitting the Curve using XLfit (v5.3.1.3), equation 201: Y=Bottom+(Top−Bottom)/(1+10^((Log IC50−X)*HillSlope)).
# [3] = tested on: K562 cells; experiment: Cell viability assay (CellTiter Glo); conditions: Homo sapiens; K562 cells grown as in Example B1; read-out: BRAF Cytotoxicity (IC50, nM) K562
# Protocol: K562 cells, cultured in Iscove's Modified Dulbecco's Media (IMDM) supplemented with 10% FBS, were harvested at 50-80% confluency and plated at 2,000 cells per well in 384-well tissue culture plates. A subset of wells contained media only (low control, LC). Compounds were serially diluted in DMSO. 40 nL of compound or DMSO only (high control, HC) were added to each well using an Echo 550 liquid handler (Labcyte). The plates were placed in a 37° C. incubator with 5% CO2 for 72 hours. Cell viability was measured using a CellTiter-Glo luminescent cell viability assay (Promega), which allows for relative quantification of metabolically active cells by luminescence-based measurements of intracellular ATP concentrations. Briefly, plates were removed from the incubator and equilibrated for 15 minutes at room temperature prior to the addition of 40 μL of CellTiter-Glo reagent. Plates were then incubated for 30 minutes at room temperature. Luminescence was measured using an EnSpire plate reader (Perkin Elmer). As noted above, luminescence values from wells with DMSO only or media without cells were used as high and low controls (HC and LC), respectively. Normalized percent viability was calculated as follows: percent viability=100×(LumSample−LumLC)/(LumHC−LumLC). IC50 values were calculated using the XLFit software.
# as §1, §3, §4, §5
# [4] = tested on: OCI-AML-2 (MBNL1-CRAF fusion); experiment: Cell viability assay (CellTiter Glo); conditions: OCI-AML-2, 1000 cells per well, read-out: BRAF Cytotoxicity (IC50, nM) OCI-AML-2
# Protocol: as §1, §2, §3, §4, §5
# [5] = tested on: HepG2 (NRAS Q61L); experiment: Cell viability assay (CellTiter Glo); conditions: HepG2, 750 cells per well, read-out: BRAF Cytotoxicity (IC50, nM) HEPG2
# Protocol: as §1, §2, §3, §4, §5
# [6] = tested on: SK-MEL-30 (NRAS Q61K); experiment: Cell viability assay (CellTiter Glo); conditions: SK-MEL-30, 750 cells per well, read-out: BRAF Cytotoxicity (IC50, nM) SK-MEL-30
# Protocol: as §1, §2, §3, §4, §5
# [7] = A375, 1000 cells seeded per well, 72 hours, read-out: BRAF Cytotoxicity (IC50, nM) A375 (1000 cells)
# [8] = A375, 250 cells seeded per well, 72 hours, read-out: BRAF Cytotoxicity (IC50, nM) A375 (250 cells)
# [9] = Homo sapiens, A-375, 72 h, A375, 1000 cells seeded per well, read-out: BRAF Cytotoxicity (IC50, nM) A375 (1000 cells)
SMILES,"IC50 [1, 7]",IC50 [2],IC50 ([5]; 120 hours),IC50 ([6]; 120 hours),"IC50 ([2]; Homo sapiens, A-375, 4 h)",also measured
"CCCC(O)c1cc(C)c(-c2cc3cnc(NC(=O)C4CC4)cc3n(C)c2=O)cn1 (single isomer, unassigned) [Example S42, Enantiomer A, N-(3-(6-(1-hydroxybutyl)-4-methylpyridin-3-yl)-1-methyl-2-oxo-1,2-dihydro-1,6-naphthyridin-7-yl)cyclopropanecarboxamide]",930 nM,55.1 nM,,,,
"CCCC(O)c1cc(C)c(-c2cc3cnc(NC(=O)C4CC4)cc3n(C)c2=O)cn1 (single isomer, unassigned) [Example S42, Enantiomer B, N-(3-(6-(1-hydroxybutyl)-4-methylpyridin-3-yl)-1-methyl-2-oxo-1,2-dihydro-1,6-naphthyridin-7-yl)cyclopropanecarboxamide]",141 nM,14.7 nM,,,,
"CCCC(O)c1cc(C)c(-c2cc3cnc(NC(=O)[C@H]4C[C@H]4F)cc3n(C)c2=O)cn1 (single isomer, unassigned) [Example S43, Isomer A]",52.1 nM,,82.1 nM,399 nM,8.01 nM,"IC50 [3]: 1690 nM; IC50 ([4]; 72 hours): 457 nM; IC50 [1, 8]: 152 nM"
"CCCC(O)c1cc(C)c(-c2cc3cnc(NC(=O)[C@H]4C[C@H]4F)cc3n(C)c2=O)cn1 (single isomer, unassigned) [Example S43, Isomer B]",189 nM,14.7 nM,843 nM,> 6150 nM,,"IC50 ([4]; 72 hours): 2710 nM; IC50 [1, 8]: 335 nM"
"CCC(O)c1cc(C)c(-c2cc3cnc(NC(=O)[C@H]4CC4(F)F)cc3n(C)c2=O)cn1 (single isomer, unassigned) [Example S49, Isomer A]",,73.8 nM,2750 nM,> 10000 nM,,IC50 ([4]; 72 hours): > 10000 nM
"CCC(O)c1cc(C)c(-c2cc3cnc(NC(=O)[C@H]4CC4(F)F)cc3n(C)c2=O)cn1 (single isomer, unassigned) [Example S49, Isomer B]",,8.64 nM,12.6 nM,103 nM,,"IC50 [3]: 733 nM; IC50 ([4]; 72 hours): 153 nM; IC50 ([1]; Homo sapiens, A-375, 72 h, A375, 250 cells seeded per well, read-out: BRAF Cytotoxicity (IC50, nM) A375 (250 cells)): 74.9 nM"
"CCC(O)c1cc(C)c(-c2cc3cnc(NC(C)=O)cc3n(C)c2=O)cn1 (single isomer, unassigned) [Example S59, Enantiomer A, N-(3-(6-(1-hydroxypropyl)-4-methylpyridin-3-yl)-1-methyl-2-oxo-1,2-dihydro-1,6-naphthyridin-7-yl)acetamide]",,78.5 nM,,,,IC50 [3]: > 10000 nM
"COCC(O)c1cc(C)c(-c2cc3cnc(NC(=O)C4CC4)cc3n(C)c2=O)cn1 (single isomer, unassigned) [Example S60, Enantiomer A, N-(3-{6-[1-hydroxy-2-methoxyethyl]-4-methylpyridin-3-yl}-1-methyl-2-oxo-1,6-naphthyridin-7-yl)cyclopropanecarboxamide]",,120 nM,> 10000 nM,> 10000 nM,,"IC50 [1, 8]: 5950 nM"
"COCC(O)c1cc(C)c(-c2cc3cnc(NC(=O)C4CC4)cc3n(C)c2=O)cn1 (single isomer, unassigned) [Example S60, Enantiomer B, N-(3-{6-[1-hydroxy-2-methoxyethyl]-4-methylpyridin-3-yl}-1-methyl-2-oxo-1,6-naphthyridin-7-yl)cyclopropanecarboxamide]",,19 nM,225 nM,3260 nM,,"IC50 [1, 8]: 1070 nM"
"CCC(O)c1cc(C)c(-c2cc3cnc(NC(=O)[C@@H]4C[C@@H]4F)cc3n(C)c2=O)cn1 (single isomer, unassigned; isomer b) [Example S40, Isomer B]",940 nM,230 nM,,,,
"CC[C@@H](O)c1cc(C)c(-c2cc3cnc(NC(=O)C4CC4)cc3n(C)c2=O)cn1 [Compound 68, (R)—N-(3-(6-(1-hydroxypropyl)-4-methylpyridin-3-yl)-1-methyl-2-oxo-1,2-dihydro-1,6-naphthyridin-7-yl)cyclopropanecarboxamide]",,,,,249 nM,"IC50 ([4]; Homo sapiens, OCI-AML2, 72 h): 2510 nM; IC50 [1, 9]: 871 nM"
"CC[C@@H](O)c1cc(C)c(-c2cc3cnc(NC(=O)[C@H]4C[C@H]4F)cc3n(C)c2=O)cn1 [Compound 109, (1R,2R)-2-fluoro-N-(3-(6-((R)-1-hydroxypropyl)-4-methylpyridin-3-yl)-1-methyl-2-oxo-1,2-dihydro-1,6-naphthyridin-7-yl)cyclopropane-1-carboxamide]",,,,,76.6 nM,"IC50 [1, 9]: 1630 nM"
"CCC(=O)c1cc(C)c(-c2cc3cnc(NC(=O)[C@H]4C[C@H]4F)cc3n(C)c2=O)cn1 [Compound 148, (1R,2R)-2-fluoro-N-(1-methyl-3-(4-methyl-6-propionylpyridin-3-yl)-2-oxo-1,2-dihydro-1,6-naphthyridin-7-yl)cyclopropane-1-carboxamide]",,,,,19.3 nM,IC50 [3]: 2640 nM
"CCCC(=O)c1cc(C)c(-c2cc3cnc(NC(=O)[C@H]4C[C@H]4F)cc3n(C)c2=O)cn1 [Compound 151, (1R,2R)—N-(3-(6-butyryl-4-methylpyridin-3-yl)-1-methyl-2-oxo-1,2-dihydro-1,6-naphthyridin-7-yl)-2-fluorocyclopropane-1-carboxamide]",,,,,10.4 nM,"IC50 ([4]; Homo sapiens, OCI-AML2, 72 h): 448 nM; IC50 ([5]; Homo sapiens, HepG2, 120 h): 37.3 nM; IC50 ([6]; Homo sapiens, SK-MEL-30, 120 h): 244 nM"
